For 34 compounds, IC50 results are on record in patent US20050197338A1, “Substituted pyrazole urea compounds for the treatment of inflammation” (priority 2003, published 2005).

The test concerns the target T1, human IKK-2 (rhIKK-2 homodimer) (Homo sapiens, UniProt O14920).
T1 construct: FLAG (DYKDDDDKD) (C); made in house; host or cells: insect cells (baculovirus, pFastBac)
T1 sequence (O14920 1-756): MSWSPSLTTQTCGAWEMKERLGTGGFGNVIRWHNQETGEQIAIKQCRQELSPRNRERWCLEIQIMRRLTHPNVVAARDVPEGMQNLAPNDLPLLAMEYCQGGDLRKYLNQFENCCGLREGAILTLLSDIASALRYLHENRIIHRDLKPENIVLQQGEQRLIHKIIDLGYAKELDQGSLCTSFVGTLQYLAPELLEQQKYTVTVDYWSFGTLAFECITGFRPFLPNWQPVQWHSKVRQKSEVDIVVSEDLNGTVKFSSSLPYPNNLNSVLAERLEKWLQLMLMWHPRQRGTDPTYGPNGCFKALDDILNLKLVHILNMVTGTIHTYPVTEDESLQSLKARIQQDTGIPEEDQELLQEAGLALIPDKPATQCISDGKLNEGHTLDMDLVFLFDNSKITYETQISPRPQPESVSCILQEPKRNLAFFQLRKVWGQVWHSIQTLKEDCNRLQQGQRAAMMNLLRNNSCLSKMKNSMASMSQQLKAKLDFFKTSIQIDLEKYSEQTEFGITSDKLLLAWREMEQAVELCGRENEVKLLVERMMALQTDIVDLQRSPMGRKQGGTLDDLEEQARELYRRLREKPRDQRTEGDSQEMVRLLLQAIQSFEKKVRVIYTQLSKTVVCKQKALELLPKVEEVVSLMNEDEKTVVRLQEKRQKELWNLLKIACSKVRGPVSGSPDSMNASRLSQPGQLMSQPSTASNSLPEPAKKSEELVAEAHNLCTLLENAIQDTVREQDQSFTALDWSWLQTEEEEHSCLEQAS
Briefly: IKK-2 Resin Enzyme Assay (Human IKK-2 Enzyme Assay). The class given is biochemical. The gist of the method:
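C-terminally FLAG-tagged human IKK-2 homodimer, baculovirus-expressed in insect cells and anti-FLAG purified. Reaction mix: 5 μM biotinylated IκBα peptide (Ser32/Ser36 region), 1 μM ATP with [γ-33P]ATP, 2 mM MgCl2, 2 mM MnCl2, 10 mM NaF, 1 mM DTT, 25 mM HEPES pH 7.6. Incubated 30 min at 25 °C; IC50 derived.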

Setting [1] is: human IKK-2, resin enzyme assay, read-out: IC50 (μM) hIKK-2.

Where two headings read alike, the source gives them in different places. Some results are limits rather than exact numbers.

In the case of `N#Cc1cccc(-c2cccc(-n3cc(NC(N)=O)c(C(N)=O)n3)c2)c1` [Example 341, 4-[(aminocarbonyl)amino]-1-(3′-cyano-1,1′-biphenyl-3-yl)-1H-pyrazole-3-carboxamide], the IC50 under setting [1] was determined as 0.984 µM.

For `COC(=O)c1cccc(-n2cc(NC(N)=O)c(C(N)=O)n2)c1` [Example 185, methyl 3-{3-(aminocarbonyl)-4-[(aminocarbonyl)amino]-1H-pyrazol-1-yl}benzoate], the IC50 under setting [1] is 5.88 µM.

Regarding `NC(=O)Nc1nn(-c2ccc(-c3cc(Cl)cc(Cl)c3)cc2)cc1C(N)=O` [Example 137], the IC50 under setting [1] is over 20 µM.

For `CC(C)(C)NC(=O)c1cccc(-c2ccc(-n3cc(NC(N)=O)c(C(N)=O)n3)cc2)c1` [Example 31, 4-[(aminocarbonyl)amino]-1-{3′-[(tert-butylamino)carbonyl]-1,1′-biphenyl-4-yl}-1H-pyrazole-3-carboxamide], under setting [1], the IC50 turned out to be 4.79 µM.

On to `NC(=O)Nc1cn(-c2ccc([S+]([O-])c3ccccc3F)cc2)nc1C(N)=O` (stereo not shown) [Example 193, 1-(1-(4-(2-fluorophenylsulfinyl)phenyl)-3-carbamoyl-1H-pyrazol-4-yl)urea], for which the IC50 under setting [1] was found to be 3.75 µM.

For the compound `NC(=O)Nc1cn(-c2ccc(SC3CCCCC3)cc2)nc1C(N)=O` [Example 189, 1-(3-carbamoyl-1-(4-(cyclohexylthio)phenyl)-1H-pyrazol-4-yl)urea], under setting [1], the IC50 came to 1.04 µM.

For the compound `Cc1ccc(-c2ccc(-n3cc(NC(N)=O)c(C(N)=O)n3)cc2)cc1` [Example 103], the IC50 under setting [1] was over 20 µM.

For the compound `NC(=O)Nc1cn(-c2cccc(-c3ccsc3)c2)nc1C(N)=O` [Example 43, 4-[(aminocarbonyl)amino]-1-(3-thien-3-ylphenyl)-1H-pyrazole-3-carboxamide], the IC50 under setting [1] worked out at 8.54 µM.

As for `NC(=O)Nc1cn(-c2cccc(-c3ccccc3OCc3ccccc3)c2)nc1C(N)=O` [Example 86, 4-[(aminocarbonyl)amino]-1-[2′-(benzyloxy)-1,1′-biphenyl-3-yl]-1H-pyrazole-3-carboxamide], the half-maximal inhibitory concentration (IC50) under setting [1] amounted to 5.91 µM.

Regarding `N#CCOc1cccc(-c2ccc(-n3cc(NC(N)=O)c(C(N)=O)n3)cc2Cl)c1` [Example 220, 4-[(aminocarbonyl)amino]-1-[2-chloro-3′-(cyanomethoxy)-1,1′-biphenyl-4-yl]-1H-pyrazole-3-carboxamide], the IC50 under setting [1] turned out to be 1.57 µM.

`N#C/C=C/c1cccc(-c2ccc(-n3cc(NC(N)=O)c(C(N)=O)n3)cc2)c1` [Example 32, 4-[(aminocarbonyl)amino]-1-{3′-[(E)-2-cyanovinyl]-1,1′-biphenyl-4-yl}-1H-pyrazole-3-carboxamide]: the half-inhibitory concentration (IC50) under setting [1] amounted to 1.16 µM.

Consider `NC(=O)Nc1cn(-c2ccc(-c3cccc(OCC(=O)O)c3)cc2)nc1C(N)=O` [Example 258, [(4′-{3-(aminocarbonyl)-4-[(aminocarbonyl)amino]-1H-pyrazol-1-yl}-1,1′-biphenyl-3-yl)oxy]acetic acid], for which the IC50 under setting [1] amounted to 1.02 µM.

`NC(=O)Nc1cn(-c2ccc(-c3cc(F)ccc3OCC(=O)O)cc2)nc1C(N)=O` [Example 259, [(4′-{3-(aminocarbonyl)-4-[(aminocarbonyl)amino]-1H-pyrazol-1-yl}-5-fluoro-1,1′-biphenyl-2-yl)oxy]acetic acid]: the IC50 under setting [1] came to 4.01 µM.

Take `Cc1cccc(-c2ccc(-n3cc(NC(N)=O)c(C(N)=O)n3)cc2)c1` [Example 102, 4-[(aminocarbonyl)amino]-1-(3′-methyl-1,1′-biphenyl-4-yl)-1H-pyrazole-3-carboxamide]: the IC50 under setting [1] stood at 2.82 µM.

As to `COc1ccc(-c2cccc(-n3cc(NC(N)=O)c(C(N)=O)n3)c2)cc1F` [Example 359, 4-[(aminocarbonyl)amino]-1-(3′-fluoro-4′-methoxy-1,1′-biphenyl-3-yl)-1H-pyrazole-3-carboxamide], the IC50 under setting [1] turned out to be 1.18 µM.

As for `NC(=O)Nc1cn(-c2cccc(-c3cc(F)cc(F)c3)c2)nc1C(N)=O` [Example 350, 4-[(aminocarbonyl)amino]-1-(3′,5′-difluoro-1,1′-biphenyl-3-yl)-1H-pyrazole-3-carboxamide], the IC50 under setting [1] is over 20 µM.

For `N#CCOc1ccccc1-c1ccc(-n2cc(NC(N)=O)c(C(N)=O)n2)cc1Cl` [Example 224, 4-[(aminocarbonyl)amino]-1-[2-chloro-2′-(cyanomethoxy)-1,1′-biphenyl-4-yl]-1H-pyrazole-3-carboxamide], the IC50 under setting [1] came out at 0.327 µM.

Take `NC(=O)Nc1cn(-c2ccc(Sc3ccc(O)cc3)cc2)nc1C(N)=O` [Example 199, 1-(1-(4-(4-hydroxyphenylthio)phenyl)-3-carbamoyl-1H-pyrazol-4-yl)urea]: under setting [1], the IC50 came to 6.56 µM.

For `NC(=O)Nc1cn(-c2ccc([S+]([O-])c3ccccn3)cc2)nc1C(N)=O` (stereo not shown) [Example 284, 1-(3-carbamoyl-1-(4-(pyridin-2-ylsulfinyl)phenyl)-1H-pyrazol-4-yl)urea], the IC50 under setting [1] worked out at 0.986 µM.

As to `NC(=O)Nc1cn(-c2ccc(-c3ccc(C(=O)NCc4ccccc4)cc3)cc2)nc1C(N)=O` [Example 35, 4-[(aminocarbonyl)amino]-1-{4′-[(benzylamino)carbonyl]-1,1′-biphenyl-4-yl}-1H-pyrazole-3-carboxamide], under setting [1], the IC50 was 1.33 µM.

As to `NC(=O)Nc1nn(-c2ccc(-c3ccc(Cl)cc3Cl)cc2)cc1C(N)=O` [Example 134, 4-[(aminocarbonyl)amino]-1-(2′,4′-dichloro-1,1′-biphenyl-4-yl)-1-pyrazole-3-carboxamide], the IC50 under setting [1] stood at 3.84 µM.

Turning to `NC(=O)Nc1cn(-c2cccc(-c3cccc(O)c3)c2)nc1C(N)=O` [Example 72, 4-[(aminocarbonyl)amino]-1-(3′-hydroxy-1,1′-biphenyl-3-yl)-1H-pyrazole-3-carboxamide], under setting [1], the IC50 is 0.44 µM.

`NC(=O)Nc1cn(-c2cccc(-c3ccc(F)cc3)c2)nc1C(N)=O` [Example 42, 4-[(aminocarbonyl)amino]-1-(4′-fluoro-1,1′-biphenyl-3-yl)-1H-pyrazole-3-carboxamide]: the IC50 under setting [1] was 9.22 µM.

In the case of `CC(=O)c1ccccc1-c1cccc(-n2cc(NC(N)=O)c(C(N)=O)n2)c1` [Example 91, 1-(2′-acetyl-1,1′-biphenyl-3-yl)-4-[(aminocarbonyl)amino]-1H-pyrazole-3-carboxamide], the IC50 under setting [1] is 3.45 µM.

In the case of `CC(C)c1ccc(-c2ccc(-n3cc(C(N)=O)c(NC(N)=O)n3)cc2)cc1` [Example 117], the IC50 under setting [1] is over 20 µM.

Regarding `CSc1ccc(-c2cccc(-n3cc(NC(N)=O)c(C(N)=O)n3)c2)cc1` [Example 358, 4-[(aminocarbonyl)amino]-1-[4′-(methylthio)-1,1′-biphenyl-3-yl]-1H-pyrazole-3-carboxamide], the IC50 under setting [1] is 8.57 µM.

With `CC(=O)c1ccc(-c2cccc(-n3cc(NC(N)=O)c(C(N)=O)n3)c2)cc1` [Example 53, 1-(4′-acetyl-1,1′-biphenyl-3-yl)-4-[(aminocarbonyl)amino]-1H-pyrazole-3-carboxamide], the IC50 under setting [1] was 4.07 µM.

`Cc1cc(-n2cc(NC(N)=O)c(C(N)=O)n2)ccc1-c1ccc(F)cc1O` [Example 241, 1-(4′-Fluoro-2′-hydroxy-2-methyl-biphenyl-4-yl)-4-ureido-1H-pyrazole-3-carboxylic acid amide]: the IC50 under setting [1] was found to be 1.68 µM.

As to `NC(=O)Nc1nn(-c2ccc(-c3ccc4ccccc4c3)cc2)cc1C(N)=O` [Example 123], the IC50 under setting [1] was over 20 µM.

Compound `NC(=O)Nc1cn(-c2cccc(-c3ccc(C(=O)N4CCC(=O)CC4)cc3)c2)nc1C(N)=O` [Example 90, 4-[(aminocarbonyl)amino]-1-{4′-[(4-oxopiperidin-1-yl)carbonyl]-1,1′-biphenyl-3-yl}-1H-pyrazole-3-carboxamide] came in with an IC50 of 2.81 µM.

`CCNC(=O)COc1ccc(F)cc1-c1ccc(-n2cc(NC(N)=O)c(C(N)=O)n2)cc1` [Example 257, 4-[(aminocarbonyl)amino]-1-{5′-fluoro-2′-[2-(ethylamino)-2-oxoethoxy]-1,1′-biphenyl-4-yl}-1H-pyrazole-3-carboxamide]: the IC50 under setting [1] was determined as 1.35 µM.

On to `NC(=O)Nc1cn(-c2cccc(I)c2)nc1C(N)=O` [Example 195, 1-(3-carbamoyl-1-(3-iodophenyl)-1H-pyrazol-4-yl)urea], for which the IC50 under setting [1] was determined as 0.387 µM.

For the compound `NC(=O)Nc1cn(-c2ccc(Sc3ccc(F)cc3)c(Cl)c2)nc1C(N)=O` [Example 221, 4-[(aminocarbonyl)amino]-1-{3-chloro-4-[(4-fluorophenyl)thio]phenyl}-1H-pyrazole-3-carboxamide], the IC50 under setting [1] worked out at 2.6 µM.

For the compound `COc1cccc(CNC(=O)c2ccc(-c3ccc(-n4cc(NC(N)=O)c(C(N)=O)n4)cc3)cc2F)c1` [Example 153, 4-[(aminocarbonyl)amino]-1-(3′-fluoro-4′-{[(3-methoxybenzyl)amino]carbonyl}-1,1′-biphenyl-4-yl)-1H-pyrazole-3-carboxamide], under setting [1], the IC50 is 0.32 µM.

By IC50 is commonly meant the concentration needed to halve the response being measured.
